Each structure is given as a SMILES string. Where two headings read alike, the source gives them in different places.

Data set [1] can be described thus: Solubility / physical state remarks on aromatic amines as avgas components. Conditions: remark on solubility above 6% or solid state at RT; b32 calls these solubility problems. It counts as physicochemical.
A short description of data set [2]: Octane enhancement by aromatic amines blended into aviation gasoline (compared to baseline avgas). Particulars: for Octane @ 6%*: amine at 6% in aviation gasoline; for Octane @ 9%*: amine at 9% in aviation gasoline.
Data set [3] has as its system rat. Conditions: cited from earlier work.
For data set [4] the following is noted: occupational exposure limit, estimated; cited from earlier work.
The conditions of data set [5]: within 10 days; cited from earlier work.
For data set [6] the following is noted: cited from earlier work; for OSHA Hazards: public MSDS / OSHA data.
The mark [7] stands for this setting: oral, MSDS data from Sigma-Aldrich, et al.

On to `Nc1cc(F)c(F)c(F)c1F` [2,3,4,5-tetrafluorophenylamine], for which the Other entry in data set [1] is “solid@RT”. Besides, in data set [2], the “Octane @ 6%*” value is on record as 1.70 and the “Octane @ 9%*” value is recorded as 2.50.

As for `Nc1ccccc1Cl` [2-chlorophenylamine], in data set [2], the “Octane @ 6%*” value is given as 4.50 and the “Octane @ 9%*” value is 5.60.

Turning to `Cc1ccc(N)c(F)c1` [2-fluoro-4-metylphenylamine], in data set [2], the “Octane @ 6%*” value is 4.00 and the “Octane @ 9%*” value stood at 5.10.

On to `Cc1ccc(F)c(N)c1` [2-fluoro-5-metylphenylamine], for which, in data set [2], the “Octane @ 6%*” value worked out at 3.60 and the “Octane @ 9%*” value came out at 5.10.

For `Nc1ccccc1F` [2-fluorophenylamine], in data set [2], the “Octane @ 6%*” value is 4.20 and the “Octane @ 9%*” value is 7.30.

Regarding `Cc1ccccc1N` [2-methylphenylamine], in data set [2], the “Octane @ 6%*” value was 1.70 and the “Octane @ 9%*” value was 2.10.

With `Cc1ccc(N)cc1C` [3,4-dimethylphenylamine], the “Octane @ 6%*” value in data set [2] stood at 5.60.

For the compound `Cc1cc(C)cc(N)c1` [3,5-dimethylphenylamine], in data set [2], the “Octane @ 6%*” value was 5.70 and the “Octane @ 9%*” value came out at 8.70.

For the compound `Nc1cccc(Cl)c1` [3-chlorophenylamine], the “Octane @ 6%*” value in data set [2] was found to be 3.60.

As to `CCc1cccc(N)c1` [3-ethylphenylamine], in data set [2], the “Octane @ 6%*” value was found to be 3.80 and the “Octane @ 9%*” value is given as 6.60.

In the case of `Cc1c(N)cccc1F` [3-fluoro-2-metylphenylamine], in data set [2], the “Octane @ 6%*” value is on record as 1.30 and the “Octane @ 9%*” value turned out to be 2.70.

Regarding `Nc1cccc(F)c1` [3-fluorophenylamine], in data set [2], the “Octane @ 6%*” value amounted to 4.20 and the “Octane @ 9%*” value is reported as 6.70.

Take `Cc1cccc(N)c1` [3-methylphenylamine]: in data set [2], the “Octane @ 6%*” value came out at 5.40 and the “Octane @ 9%*” value worked out at 7.40. In data set [3] (in vivo, po), the “LD50 (rat, oral)” value is given as 450 mg/kg.

`CCc1ccc(N)cc1` [4-ethylphenylamine]: in data set [2], the “Octane @ 6%*” value came to 3.80 and the “Octane @ 9%*” value is 6.30.

Consider `Cc1cc(F)ccc1N` [4-fluoro-2-metylphenylamine], for which, in data set [2], the “Octane @ 6%*” value was 1.60 and the “Octane @ 9%*” value worked out at 2.10.

Turning to `Nc1ccc(F)cc1` [4-fluorophenylamine], in data set [2], the “Octane @ 6%*” value came out at 4.20 and the “Octane @ 9%*” value was 7.50.

Take `Cc1ccc(N)cc1` [4-methylphenylamine]: the “Octane @ 6%*” value in data set [2] worked out at 6.10.

As for `CC(C)(C)c1ccc(N)cc1` [4-t-butylphenylamine], in data set [2], the “Octane @ 6%*” value is 4.20 and the “Octane @ 9%*” value is given as 6.60.

On to `Cc1ccc(F)cc1N` [5-fluoro-2-metylphenylamine], for which, in data set [2], the “Octane @ 6%*” value was found to be 1.60 and the “Octane @ 9%*” value worked out at 2.10.

In the case of `c1ccccc1` [Benzene], the “LD50 (rat, oral)” value in data set [3] (in vivo, po) is 2,990 mg/kg.

As for `CC(C)c1ccc(N)cc1` [Cumidine, 4-isopropylaniline], the TWA in data set [4] was roughly 2 ppm. The biodegradable in data set [5] is listed as 88%. Further, in data set [6] (MSDS No. 818472, EMD Millipore), the “classification as mutagen or carcinogen” value is “not classified as a mutagen or carcinogen”. The “Octane @ 6%*” value in data set [2] stood at 4.40. In data set [2], the “Octane @ 9%*” value is given as 7.20. For the same compound, the “LD50 (rat, oral)” value in data set [3] (oral, MSDS No. 818472, EMD Millipore) is 757 mg/kg; in data set [3] (setting [7]), 757 mg/kg.

As to `CCOC(C)(C)C` [ETBE, ethyl tert-butyl ether], the “OSHA Hazards” value in data set [6] is given as “Irritant”. Besides, in data set [3] (setting [7]), the “LD50 (rat, oral)” value was 5,000 mg/kg.

For `Cc1cc(C)cc(C)c1` [Mesitylene], the “LD50 (rat, oral)” value in data set [3] (setting [7]) was 5,000 mg/kg.

For `CCNc1ccccc1` [N-ethylphenylamine], the “Octane @ 6%*” value in data set [2] is listed as −2.50.

With `CNc1ccc(F)cc1` [N-methyl-4-fluorophenylamine], in data set [2], the “Octane @ 6%*” value was found to be 2.50 and the “Octane @ 9%*” value turned out to be 2.60.

On to `CNc1ccccc1` [N-methylphenylamine], for which, in data set [2], the “Octane @ 6%*” value is 2.10 and the “Octane @ 9%*” value is recorded as 2.60.

For the compound `C[CH2][Pb]([CH2]C)([CH2]C)[CH2]C` [TEL, Tetraethyl lead], the “LD50 (rat, oral)” value in data set [3] (setting [7]) is recorded as 14 mg/kg.

For the compound `Cc1ccccc1` [Toluene], in data set [3] (setting [7]), the “LD50 (rat, oral)” value is reported as 5,000 mg/kg.

Turning to `Nc1ccccc1` [phenylamine], the “OSHA Hazards” value in data set [6] (listed as aniline) was “irritant”. Further, in data set [2], the “Octane @ 6%*” value was found to be 5.70 and the “Octane @ 9%*” value is on record as 8.70. Moreover, in data set [3] (in vivo, po), the “LD50 (rat, oral)” value is listed as 250 mg/kg.

(Values after patent publication US20180051221A1, “UNLEADED GASOLINE FORMULATIONS FOR PISTON ENGINES” (Swift Fuels, LLC, priority 2014, published 2018).)
